Consider 19 compounds from ChEMBL document CHEMBL1795311, “Synthesis, antiproliferative activity, and mechanism of action of a series of 2-{[(2E)-3-phenylprop-2-enoyl]amino}benzamides” (Eur J Med Chem, 2011).

Assay [1] deals with K562. Briefly: Antiproliferative activity against human K562 cells at 10 uM after 48 hrs by trypan blue assay. As to conditions: K562, 48 h, read-out: GI. In kind it is functional.
The subject of assay [2] is K562. Briefly: Growth inhibition of human K562 cells after 48 hrs by trypan blue assay. In kind it is functional, cell-based. As to conditions: K562, 48 h.

What is called IC50 is the concentration that gives 50% inhibition. Turning to `NC(=O)c1ccccc1NC(=O)/C=C/c1ccccc1`, the inhibition of growth at 10 µM with K562 [1] worked out at 14.2%. Also, in the assay on K562 [2], the IC50 is above 10 µM.

For `COc1cc2c(c(OC)c1OC)-c1ccc(OC)c(=O)cc1[C@@H](NC(C)=O)CC2` [COLCHICINE], the inhibition of growth at 10 µM with K562 [1] was 63.6%. Further, it took 0.02 µM to reach half-maximal inhibition with K562 [2] (IC50).

With `Cc1cccc(/C=C/C(=O)Nc2ccc(Br)cc2C(N)=O)c1`, in the assay on K562 [1], the inhibition of growth at 10 µM came to 43.8%. In the assay on K562 [2], the IC50 is above 10 µM.

On to `NC(=O)c1cc(Br)ccc1NC(=O)/C=C/c1cccc(Br)c1`, for which the inhibition of growth at 10 µM with K562 [1] came to 45.9%. This compound had an IC50 with K562 [2] above 10 µM.

As to `Cc1ccccc1/C=C/C(=O)Nc1ccc(Br)cc1C(N)=O`, the inhibition of growth at 10 µM in the assay with K562 [1] was 43.2%. Further, the IC50 in the assay with K562 [2] was above 10 µM.

Regarding `NC(=O)c1cc(Cl)ccc1NC(=O)/C=C/c1ccccc1Br`, in the assay with K562 [1], the inhibition of growth at 10 µM is 49%. For the same compound, in the assay with K562 [2], the IC50 amounted to 10 µM.

Turning to `Cc1ccc(/C=C/C(=O)Nc2ccc(Cl)cc2C(N)=O)cc1`, in the assay on K562 [1], the inhibition of growth at 10 µM was found to be 64%. In the assay on K562 [2], the concentration for half-maximal inhibition (IC50) came out at 6.3 µM.

Turning to `NC(=O)c1cc(Br)ccc1NC(=O)/C=C/c1ccccc1Br`, in the assay on K562 [1], the inhibition of growth at 10 µM amounted to 46.2%. In addition, the IC50 in the assay with K562 [2] was above 10 µM.

As to `Cc1ccccc1/C=C/C(=O)Nc1ccc(I)cc1C(N)=O`, the inhibition of growth at 10 µM with K562 [1] was 26.3%. Besides, the IC50 in the assay with K562 [2] is above 10 µM.

As for `NC(=O)c1cc(Cl)ccc1NC(=O)/C=C/c1cccc(Br)c1`, in the assay on K562 [1], the inhibition of growth at 10 µM is 27%. In the assay on K562 [2], this compound gave a concentration for half-maximal inhibition (IC50) above 10 µM.

As to `NC(=O)c1cc(Cl)ccc1NC(=O)/C=C/c1ccccc1Cl`, the inhibition of growth at 10 µM with K562 [1] was 58%. The compound further gave an IC50 with K562 [2] of 7.4 µM.

As to `NC(=O)c1cc(Cl)ccc1NC(=O)/C=C/c1ccc(Cl)cc1`, the inhibition of growth at 10 µM in the assay on K562 [1] was found to be 31%. This compound gave an IC50 in the assay on K562 [2] above 10 µM.

As for `Cc1ccccc1/C=C/C(=O)Nc1ccc(Cl)cc1C(N)=O`, in the assay with K562 [1], the inhibition of growth at 10 µM was determined as 52.2%. In the assay on K562 [2], this compound registered an IC50 of 9.5 µM.

As to `NC(=O)c1cc(Br)ccc1NC(=O)/C=C/c1ccccc1Cl`, in the assay on K562 [1], the inhibition of growth at 10 µM worked out at 59%. In addition, the IC50 in the assay with K562 [2] stood at 8.1 µM.

As to `NC(=O)c1cc(Br)ccc1NC(=O)/C=C/c1ccc(Cl)cc1`, the inhibition of growth at 10 µM in the assay with K562 [1] came out at 22%. Also, the half-inhibitory concentration (IC50) in the assay on K562 [2] is above 10 µM.

With `Cc1cccc(/C=C/C(=O)Nc2ccc(Cl)cc2C(N)=O)c1`, in the assay on K562 [1], the inhibition of growth at 10 µM was 37.8%. In addition, the IC50 in the assay with K562 [2] is above 10 µM.

With `NC(=O)c1cc(Br)ccc1NC(=O)/C=C/c1cccc(Cl)c1`, the inhibition of growth at 10 µM with K562 [1] worked out at 25.5%. The compound also showed a concentration for half-maximal inhibition (IC50) with K562 [2] above 10 µM.

Consider `NC(=O)c1cc(Cl)ccc1NC(=O)/C=C/c1cccc(Cl)c1`, for which the inhibition of growth at 10 µM with K562 [1] worked out at 28.2%. This compound also registered an IC50 in the assay with K562 [2] above 10 µM.

As for `Cc1ccc(/C=C/C(=O)Nc2ccc(Br)cc2C(N)=O)cc1`, the inhibition of growth at 10 µM in the assay on K562 [1] was 45.9%. The same compound came in with an IC50 in the assay on K562 [2] above 10 µM.
